Data as given in article PMC3953453 (Molecular pharmaceutics, 2012).
Like-named read-outs stand apart in the source and are kept apart here.

How the values were obtained:
[1] = cited from earlier work
[2] = tested on: β-glucuronidase in intestinal perfusate; test: biological stability in blank intestinal perfusate; settings: for effect on hydrolysis of wogonoside in blank intestinal perfusate: wogonoside 20 μM, 0.1 or 4.4 mM saccharolactone, 20 mM gluconolactone
[3] = tested on: perfused rat intestine (duodenum, upper jejunum, terminal ileum and colon); test: four-site perfused rat intestinal model; format: in vivo; settings: for effect of co-perfusion on absorption and metabolism of wogonoside: 0.1 mM saccharolactone, 20 mM gluconolactone, or antibiotics (100 units penicillin and 0.1mg streptomycin/mL)
[4] = biological target: T1, β-glucuronidase derived from intestinal S9 fraction (Rattus norvegicus, UniProt P06760); test: hydrolysis of wogonoside by rat intestine S9 fractions; format: in vitro ADME; settings: for Km: read-out: Km of wogonoside hydrolysis
T1 sequence (P06760 23-648): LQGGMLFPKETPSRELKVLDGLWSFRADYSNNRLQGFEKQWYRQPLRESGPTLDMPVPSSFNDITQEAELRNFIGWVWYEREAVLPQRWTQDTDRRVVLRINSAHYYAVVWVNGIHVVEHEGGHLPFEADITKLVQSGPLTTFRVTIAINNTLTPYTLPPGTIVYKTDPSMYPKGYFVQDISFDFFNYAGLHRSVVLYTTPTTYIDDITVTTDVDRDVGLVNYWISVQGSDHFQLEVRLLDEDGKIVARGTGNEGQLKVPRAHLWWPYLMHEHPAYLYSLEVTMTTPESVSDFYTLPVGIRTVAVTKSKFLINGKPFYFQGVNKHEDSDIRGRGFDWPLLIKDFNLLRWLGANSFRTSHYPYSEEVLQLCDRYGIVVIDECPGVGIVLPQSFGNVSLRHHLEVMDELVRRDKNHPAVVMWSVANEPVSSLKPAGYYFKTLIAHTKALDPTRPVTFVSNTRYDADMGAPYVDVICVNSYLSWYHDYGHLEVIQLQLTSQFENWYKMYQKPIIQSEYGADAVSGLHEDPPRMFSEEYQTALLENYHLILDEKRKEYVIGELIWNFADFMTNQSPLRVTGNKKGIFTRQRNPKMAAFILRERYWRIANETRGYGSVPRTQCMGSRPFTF

[5] = stability in diluted bile solution; format: in vitro ADME, rat; settings: 20 μM, 4-fold diluted bile solution, 37°C
[6] = tested on: β-glucuronidase of microbial enzymatic extract (rat feces); test: hydrolysis of wogonoside by microbial enzymatic extract from rat feces; format: in vitro ADME
[7] = chemical stability of wogonoside; format: physicochemical
[8] = tested on: β-glucuronidase in the rat intestine perfusates; test: hydrolysis of wogonoside in blank rat intestinal perfusate; format: in vitro ADME; settings: for Vmax of wogonoside hydrolysis / Km: blank perfusate; for Km: read-out: Km of wogonoside hydrolysis

For Oc1ccc(/C=C/c2cc(O)cc(O)c2)cc1 [resveratrol], the bioavailability [1] is listed as under 5%.

With O=C(O)[C@@H](O)[C@H]1OC(=O)[C@H](O)[C@H]1O [saccharolactone] the “effect on hydrolysis of wogonoside in blank intestinal perfusate” value [2] was “inhibit the hydrolysis of wogonoside in all perfusate”, the “effect of co-perfusion on absorption and metabolism of wogonoside” value [3] was “affected both absorption and metabolism of wogonoside” and the “effect of co-perfusion on absorption and metabolism of wogonin” value ([3]; co-perfused with 0.1 mM saccharolactone) was “did not affect the absorption or metabolism of wogonin”.

In the case of O=C1O[C@H](CO)[C@@H](O)[C@H](O)[C@H]1O [gluconolactone, reference compound], the “effect on hydrolysis of wogonoside in blank intestinal perfusate” value [2] is reported as “did not inhibit the hydrolysis of wogonoside” and the “effect of co-perfusion on absorption and metabolism of wogonoside” value [3] is reported as “did not affect its absorption”.

With COc1c(O[C@@H]2O[C@H](C(=O)O)[C@@H](O)[C@H](O)[C@H]2O)cc(O)c2c(=O)cc(-c3ccccc3)oc12 [wogonoside, wogonin-7-O-glucuronide] the “Vmax of wogonoside hydrolysis” value ([4]; Duo S9 fraction) was 2.06 nmol/min/mg, the “Vmax of wogonoside hydrolysis” value ([4]; Ile S9 fraction) was 0.26 nmol/min/mg and the “Vmax of wogonoside hydrolysis” value ([4]; Jeu S9 fraction) was 1.68 nmol/min/mg. For the same compound, the maximal hydrolysis rate ([4]; jejunal S9 fraction, pH 4.5, wogonoside 20μM) was 5.195 ± 0.103 nmol/min/mg, the “optimal pH of glucuronidase activity” value ([4]; jejunal S9 fraction, wogonoside 20μM, 37°C, 30 min) was 4.5 and the Km ([4]; Duo S9 fraction) was 30 µM. For the same compound, the Km ([4]; Ile S9 fraction) was 25.7 µM, the Km ([4]; Jeu S9 fraction) was 28.2 µM and the stability in bile [5] was “fairly stable”. For the same compound, the “stability in blank intestinal perfusate” value ([2]; blank perfusate of duodenum, jejunum, ileum, colon, 37°C, up to 8 h) was “unstable”, the “stability in blank intestinal perfusate after removal of bacteria” value ([2]; centrifugation (13,000 rpm, 30 min) and aseptic filtration, 20 μM) was “did not improve stability of wogonoside” and the “Vmax of wogonoside hydrolysis” value ([6]; Microflora enzymatic extract) was 49.64 nmol/min/mg. For the same compound, the highest hydrolysis rate ([6]; fecal extract, pH 5.5, wogonoside 20μM) was 249.211 ± 0.178 nmol/min/mg, the Km ([6]; read-out: Km of wogonoside hydrolysis, Microflora enzymatic extract) was 7.7 µM and the chemical stability ([7]; pH 5.5, pH 6.5 and pH 7.4, 37°C) was “chemically stable”. The “recovery (chemical stability)” value ([7]; pH 5.5, pH 6.5 and pH 7.4, 8 h incubation at 37°C) was 104%-106%, the “metabolite found in perfusate (interconversion)” value ([3]; 5 μM and 20 μM perfused) was “significant amounts of wogonin were recovered in the wogonoside perfusate” and the intestinal absorption ([3]; 5 μM and 20 μM, four segments) was “slower in every intestine regions when compared to wogonin”. The maximal hydrolysis rate ([8]; blank jejunal perfusate, pH 4.5, wogonoside 20μM) was 1.559 ± 0.008 nmol/min/mg, the “Vmax of wogonoside hydrolysis” value ([8]; Col 60-90min) was 0.15 nmol/min/mg and the “Vmax of wogonoside hydrolysis” value ([8]; Duo 60-90min) was 0.15 nmol/min/mg. The “Vmax of wogonoside hydrolysis” value ([8]; Ile 60-90min) was 0.85 nmol/min/mg, the “Vmax of wogonoside hydrolysis” value ([8]; Ile 120-150min) was 0.30 nmol/min/mg and the “Vmax of wogonoside hydrolysis” value ([8]; Jej 0-30min) was 1.84 nmol/min/mg. For the same compound, the “Vmax of wogonoside hydrolysis” value ([8]; Jej 30-60min) was 0.93 nmol/min/mg, the “Vmax of wogonoside hydrolysis” value ([8]; Jej 60-90min) was 0.47 nmol/min/mg and the “Vmax of wogonoside hydrolysis” value ([8]; Jej 90-120min) was 0.37 nmol/min/mg. For the same compound, the “Vmax of wogonoside hydrolysis” value ([8]; Jej 120-150min) was 0.18 nmol/min/mg, the Km ([8]; Col 60-90min) was 19.7 µM and the Km ([8]; Duo 60-90min) was 19.9 µM. It also gave a Km ([8]; Ile 60-90min) of 6.33 µM, a Km ([8]; Ile 120-150min) of 6.96 µM and a Km ([8]; Jej 0-30min) of 19.8 µM. The Km ([8]; Jej 30-60min) was 15.8 µM, the Km ([8]; Jej 60-90min) was 18.7 µM and the Km ([8]; Jej 90-120min) was 17 µM. It also gave a Km ([8]; Jej 120-150min) of 25.5 µM.
